Patent US20030003451A1, “Novel G protein-coupled receptors” (priority 2000, published 2003)
Several values for one entry are separate records, joined by “and”; a condition that tells them apart may be missing. Equal entries are not always repeated. Bridge positions count the residues as written; N and C are the ends. Ends that are not written are not given here. Peptide text beside a SMILES is read from it. * marks the point of attachment. 125I = [125I]*

Experiments:
[1] = tested on: CHO cells stably transfected with a nGPCR-x expression vector; assay: Intracellular calcium measurement using FLIPR, positive controls; type: cell-based, Chinese Hamster; details: A23187 10 μM, ATP 4 μM
Description: Changes in intracellular calcium levels are another recognized indicator of G protein-coupled receptor activity, and such assays can be employed to screen for modulators of nGPCR-x activity. For example, CHO cells stably transfected with a nGPCR-x expression vector are plated at a density of 4×10^4 cells/well in Packard black-walled, 96-well plates specially designed to discriminate fluorescence signals emanating from the various wells on the plate. The cells are incubated for 60 minutes at 37 C. in modified Dulbecco's PBS (D-PBS) containing 36 mg/L pyruvate and 1 g/L glucose with the addition of 1% fetal bovine serum and one of four calcium indicator dyes (Fluo-3™ AM, Fluo-4™ AM, Calcium Green™-1 AM, or Oregon Green™ 488 BAPTA-1 AM), each at a concentration of 4 μM. […]
A calcium response is initiated by the addition of one or more candidate receptor agonist compounds, calcium ionophore A23187 (10 μM; positive control), or ATP (4 μM; positive control). Fluorescence is measured by Molecular Device's FLIPR with an argon laser (excitation at 488 nm). […] Basal fluorescence of cells was measured for 20 seconds prior to addition of candidate agonist, ATP, or A23187, and the basal fluorescence level was subtracted from the response signal. The calcium signal is measured for approximately 200 seconds, taking readings every two seconds. […]

nGPCR-51 [2] = biological target: T1, nGPCR-51 (Homo sapiens, UniProt Q969V1); assay: NFkB-Luciferase reporter gene assay, nGPCR-51 (Seq51)-transfected N7 (HOS) cells; type: cell-based; details: 5-hr incubation, 2 separate experiments, read-out: EC50, luciferase expression
T1 construct: expressed in transfected cells
T1 sequence (Q969V1 whole entry): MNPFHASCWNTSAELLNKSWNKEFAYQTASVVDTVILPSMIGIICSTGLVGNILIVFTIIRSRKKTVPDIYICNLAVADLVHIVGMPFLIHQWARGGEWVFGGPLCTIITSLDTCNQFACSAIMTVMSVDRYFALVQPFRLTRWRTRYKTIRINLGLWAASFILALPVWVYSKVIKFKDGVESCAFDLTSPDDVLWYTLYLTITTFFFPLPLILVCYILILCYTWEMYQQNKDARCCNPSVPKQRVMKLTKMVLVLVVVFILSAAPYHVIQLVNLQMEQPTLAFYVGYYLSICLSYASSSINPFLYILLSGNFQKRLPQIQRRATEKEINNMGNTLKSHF
Description: nGPCR-51 was transfected in N7 cells, stable HOS (human osteosarcoma) cells expressing NFkB-Luciferase reporter gene Briefly, LipofectAMINE, PLUS reagent, and 4 μg DNA were added to cells in Opti-MEM. After 4 hours, serum-containing medium was added to each plate. Twenty-four hour after transfection the cells were trypsinized and seeded in COSTAR white 96-well plate at a cell density of about 20,000 cells per well. Another 24 hours later the culture medium was replaced with fresh growth medium and Peptide A was added. After 5-hr incubation with Peptide A, the medium was aspirated and 100 μL diluted Steady Glo was added. The plates were gently shake at room temperature for 30 minutes and luminescence determined by TopCount at the SPC mode.

vector-transfected cells = assay: Intracellular calcium measurement using FLIPR, empty vector control HEK293 cells; type: cell-based, human; details: 0.03 pM-10 nM
Description: (§1) HEK293 cells were transiently transfected with an expression vector for nGPCR-51 and empty vector using Lipofectamine plus (Gibco) according to the manufacturer's instructions. The next day, the cells were seeded into 96-well plates at 25,000 cells per well. The following day, cells were loaded with 1 uM Fluo-4-acetoxymethyl fluorescent indicator dye (Molecular Probes) in MEM (minimal essential media) containing 0.1% bovine serum albumin, 0.04% pluronic acid and 2.5 mM probenecid for 30 minutes at 37 C. The cells were washed with pre-warmed (37 C.) assay buffer (Hanks buffer containing 15 mM HEPES, 2.5 mM probenecid and 0.1% bovine serum albumin). Assay buffer (100 ul) was added to each well and plates were incubated at 37 C. for 15 minutes. Various concentrations (0.03 pM-10 nM) of human Peptide A or salmon Peptide B were added and fluorescence produced by fluo-4 (a calcium sensitive dye) was measured every second for 150 seconds on a fluorometric imaging plate reader (FLIPR1; Molecular Devices). Human Peptide A and salmon Peptide B-induced calcium mobilization in nGPCR-51-transfected cells with EC50 values of 3 nM and 6 nM, respectively. Human Peptide A and salmon Peptide B had no effect on vector-transfected cells.

nGPCR-51 [3] = biological target: T1, nGPCR-51; assay: Intracellular calcium measurement using FLIPR, nGPCR-51-transfected HEK293 cells; type: cell-based; details: fluo-4, FLIPR, read-out: EC50, calcium mobilization
Description: as §1

[4] = injections of the peptide; cited from earlier work
nGPCR-51 [5] = biological target: T1, nGPCR-51; assay: Aequorin luminescence assay, COS 7 cells co-transfected with nGPCR-51 and mtAequorin; type: cell-based; details: nGPCR-51 expressing COS 7 cells
Description: Agonist activation of receptors that couple to the Gq subtype of G proteins will lead to the release of intracellular calcium. The photoprotein aequorin emits a characteristic luminescence in the presence of calcium and may be expressed in cells along with the receptor of interest in order to report agonist signalling. Peptide A was tested for the ability to activate nGPCR-51 using an assay for aequorin. Peptide A, a cyclic peptide via a disulfide bond between the Cys residues, has the following amio acid sequence: Asp Phe Asp Met Leu Arg Cys Met Leu Gly Arg Val Tyr Arg Pro Cys Trp Gln Val (SEQ ID NO: 183). Preferably, Peptide A is used in a solution containing 0.17M acetic acid, or the like, and a stabilizer such as a 0.2% BSA:acetonitrile 90:10. […] After the coelenterazine loading incubation, the cells are counted and diluted to 1×10^6 cells/ml in assay buffer. […] The instrument is programmed to dispense 50 μl cell suspension into each well, one well at a time, and immediately read luminescence for 20 seconds. […] Data are analyzed with SlideWrite, using the equation y=a^0*a^1/(x+a^1)+a^2 where a^0 is the maximum response minus the baseline; a^1 is the EC50; and a^2 is the […].

[6] = in vivo; cited from earlier work
[7] = intracerebroventricular injection, rats; cited from earlier work
[8] = central injections in rats; cited from earlier work
[9] = injections into the medial preoptic area of the hypothalamus of rats; cited from earlier work
SLC-1 gene product = details: cited from earlier work
[10] = intracerebroventricular injection; cited from earlier work
nGPCR-51 [11] = biological target: T2, nGPCR-51 (human (H. sapiens), UniProt Q969V1 1-340); assay: cell-based or functional assay
T2 sequence (Q969V1 whole entry): as above

nGPCR-51 [12] = biological target: T2, nGPCR-51; assay: saturation radioligand binding, membranes of COS 7 cells transiently expressing nGPCR-51, filtration
Description: HEK 293 or COS 7 cells transiently expressing nGPCR-51, or CHO K-I cells stable expressing nGPCR-51, were grown to sub-confluence (2 days post-transfection for transients), harvested from flasks in Dulbecco's PBS and pelleted by low speed centrifugation (2500 rpm) for 10 minutes. Cell pellets were homogenized in 10 ml tissue buffer (50 mM Hepes, 10 mM MgCl₂, 2 mM EGTA, 1 μg/ml aprotinin, 1 μg/ml leupeptin hemisulfate, 1 μg/ml pepstatin A, pH 7.0) using a dounce, 10 strokes. Homogenate was centrifuged at 47,000× g for 15 minutes. Membrane pellet was resuspended in 1 ml tissue buffer using the dounce, 10 strokes. An aliquot of the membrane preparation was used to determine protein concentration. For measurement of saturation binding, 10 μg of cell membranes were incubated with various concentrations of [¹²⁵I] Peptide A (iodinated by routine procedures via the Tyr residue) in 300 μl binding assay buffer (tissue buffer plus 0.15 mM Bacitracin and 0.1% ovalbumin) for 90 minutes at room temperature in 96-well plates. Non-specific binding was defined by the inclusion of 1 μM Peptide A. After the binding incubation, plates were harvested onto GF/C filters presoaked in 0.3% non-fat dry milk. […] Filter plates were then counted in a Packard Topcount™ 96-well microplate scintillation counter. Data were analyzed using GraphPad Prism (San Diego, Calif.) and Kd and Bmax values were calculated. […]

CNc1ccc2oc(C[C@H]3O[C@@]4(CC[C@H]3C)O[C@H]([C@H](C)C(=O)c3ccc[nH]3)[C@H](C)C[C@H]4C)nc2c1C(=O)O [Peptide A23187]
increase of calcium signal above baseline levels [1]: 200%

CSCC[C@@H]1NC(=O)[C@@H](NC(=O)[C@H](CCCNC(=N)N)NC(=O)[C@H](CCSC)NC(=O)[C@@H](NC(=O)[C@@H](N)CC(=O)O)[C@@H](C)O)CSSC[C@@H](C(=O)N[C@@H](Cc2c[nH]c3ccccc23)C(=O)N[C@@H](CCC(=O)O)C(=O)N[C@H](C(=O)O)C(C)C)NC(=O)[C@@H]2CCCN2C(=O)[C@H](CCCNC(=N)N)NC(=O)[C@H](Cc2ccc(O)cc2)NC(=O)[C@H](C(C)C)NC(=O)[C@H](CCCNC(=N)N)NC(=O)CNC(=O)[C@H](C(C)C)NC1=O [salmon Peptide B, Asp Thr Met Arg Cys Met Val Gly Arg Val Tyr Arg Pro Cys Trp Glu Val] (HELM PEPTIDE1{D.T.M.R.C.M.V.G.R.V.Y.R.P.C.W.E.V}$PEPTIDE1,PEPTIDE1,5:R3-14:R3$$$V2.0; N-terminus and C-terminus assumed)
EC50 (nGPCR-51 [2]): ~25 nM
effect on calcium mobilization in vector-transfected cells (vector-transfected cells): no effect
EC50 (nGPCR-51 [3]): 6 nM

Nc1ncnc2c1ncn2[C@@H]1O[C@H](COP(=O)(O)OP(=O)(O)OP(=O)(O)O)[C@@H](O)[C@H]1O [ATP]
increase of calcium signal above baseline levels [1]: 200%

CSCC[C@@H]1NC(=O)[C@@H](NC(=O)[C@H](CCCNC(=N)N)NC(=O)[C@H](CC(C)C)NC(=O)[C@H](CCSC)NC(=O)[C@H](CC(=O)O)NC(=O)[C@H](Cc2ccccc2)NC(=O)[C@@H](N)CC(=O)O)CSSC[C@@H](C(=O)N[C@@H](Cc2c[nH]c3ccccc23)C(=O)N[C@@H](CCC(N)=O)C(=O)N[C@H](C(=O)O)C(C)C)NC(=O)[C@@H]2CCCN2C(=O)[C@H](CCCNC(=N)N)NC(=O)[C@H](Cc2ccc(O)cc2)NC(=O)[C@H](C(C)C)NC(=O)[C@H](CCCNC(=N)N)NC(=O)CNC(=O)[C@H](CC(C)C)NC1=O [Peptide A, Asp Phe Asp Met Leu Arg Cys Met Leu Gly Arg Val Tyr Arg Pro Cys Trp Gln Val]
female sexual receptivity [4]: stimulated female sexual receptivity
EC50 (nGPCR-51 [5]): ~40 nM
maximum response, aequorin luminescence (nGPCR-51 [5]): 52 fold over baseline
EC50 (nGPCR-51 [2]): 1.6 nM and 1.7 nM
passive avoidance performance [6]: alter passive avoidance performance
food intake [7]: increase in food intake
effect on calcium mobilization in vector-transfected cells (vector-transfected cells): no effect
peak circadian ACTH levels [8]: reduction in peak circadian ACTH levels
stress-induced ACTH secretion [8]: inhibit stress-induced ACTH secretion
time spent in open arms, elevated plus maze [9]: decreases in time spent in open arms
activation of SLC-1 G-protein coupled receptor (SLC-1 gene product): potently activated
EC50 (nGPCR-51 [3]): 3 nM
conditioning amplitude of the second of a pair of auditory evoked potentials recorded from the hippocampus [10]: decrease in the conditioning amplitude
effect on increases in the conditioning amplitude induced by alpha MSH [10]: reverses the increases in the conditioning amplitude

DTMRCMVGRVYRPCWEV [Salmon Peptide B]
calcium mobilization (FLIPR, fluo-4, HEK293 cells), EC50 (nGPCR-51 [11]): 6 nM
luciferase expression (NFkB-Luciferase reporter, N7 cells), EC50 (nGPCR-51 [11]): ~25 nM

DFDMLRCMLGRVYRPCWQV (disulfide 7-16 (inferred)) [Peptide A]
aequorin luminescence, EC50 (nGPCR-51 [11]): ~40 nM
aequorin luminescence, maximum response (nGPCR-51 [11]): 52 fold over baseline
calcium mobilization (FLIPR, fluo-4, HEK293 cells), EC50 (nGPCR-51 [11]): 3 nM

DFDMLRCMLGRVY(125I)RPCWQV (disulfide 7-16 (inferred)) [[^125I] Peptide A]
Kd (nGPCR-51 [12]): 0.254 nM
